# Target: NAMPT (Homo sapiens (Human), UniProt P43490)
# Experiment: biochemical
# Method: Determination of the utility of compounds having Formula (I) as binders to and inhibitors of NAMPT was performed using a Time-Resolved Fluorescence Resonance Energy Transfer (TR-FRET) binding assay.
# Time-Resolved Fluorescence Resonance Energy Transfer (TR-FRET) Binding Assay of NAMPT
# Plates were covered, and reactions were carried out for 2-3 hours. Plates were read with Envision (Laser Lantha low volume protocol) after 2 to 3 hours.
# Sequence of NAMPT (P43490 whole entry, looked up): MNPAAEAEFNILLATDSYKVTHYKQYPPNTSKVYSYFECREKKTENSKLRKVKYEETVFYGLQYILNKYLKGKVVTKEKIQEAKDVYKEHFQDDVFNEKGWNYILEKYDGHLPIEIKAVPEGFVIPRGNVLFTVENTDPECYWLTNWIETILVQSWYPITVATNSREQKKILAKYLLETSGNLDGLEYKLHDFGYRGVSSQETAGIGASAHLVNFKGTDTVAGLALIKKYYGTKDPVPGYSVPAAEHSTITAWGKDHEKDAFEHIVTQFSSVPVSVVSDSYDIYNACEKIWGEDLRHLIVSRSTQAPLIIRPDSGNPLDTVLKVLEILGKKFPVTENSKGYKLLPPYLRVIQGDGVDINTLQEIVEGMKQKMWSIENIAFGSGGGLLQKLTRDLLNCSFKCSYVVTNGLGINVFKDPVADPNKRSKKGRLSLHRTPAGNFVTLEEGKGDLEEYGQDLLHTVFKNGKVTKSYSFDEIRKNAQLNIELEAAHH
structure (smiles),measurement,value
"CC(C)CCC(=O)Nc1ccc(NC(=O)N2Cc3ccccc3C2)cc1 [Example 294, N-{4-[(4-methylpentanoyl)amino]phenyl}-1,3-dihydro-2H-isoindole-2-carboxamide]",IC50,8.14 nM

# Reference: patent US9302989B2 (priority 2010, dated 2016)
